# US5300512A, “Benzimidazole compounds” (G. D. Searle & Co., priority 1992, dated 1994)
# Columns and labels:
# 5-HT3 = assay: Bezold-Jarisch reflex: reduction of 5-HT-induced bradycardia in anesthetized mice; type: in vivo; settings: i.p., 30 min before 5-HT 0.25 mg/kg i.v.; >50% reduction of bradycardia considered significant
# Protocol: (§1) 5-HT4 agonist activity was determined in the in vitro rat tunica muscularis mucosae (TMM) assay. (Baxter et al., Naunyn Schmied Arch. Pharmacol, 1991, 343, 439). The 5-HT4 agonist or antagonist and/or 5-HT3 antagonist activity of the compounds of the invention can be determined by these assays described herein, without undue experimentation.
# The compound to be evaluated was administered i.p. (mg/kg) to a group of 3 mice. […] This method has been described by Saxena, P. R. and Lawang, A., Arch. Int. Pharmacodyn., 277: 235-252, 1985.
# 5-HT3 receptor = target: T1, 5-HT3 receptor (Rattus norvegicus, UniProt P35563); assay: [3H]-GR65630 radioligand binding to 5-HT3 receptor, rat brain cortex membranes
# T1 construct: Brain cortices were obtained from male rats and a membrane fraction prepared by standard techniques; from tissue; host or cells: rat brain cortex, membrane fraction
# T1 sequence (P35563 24-483): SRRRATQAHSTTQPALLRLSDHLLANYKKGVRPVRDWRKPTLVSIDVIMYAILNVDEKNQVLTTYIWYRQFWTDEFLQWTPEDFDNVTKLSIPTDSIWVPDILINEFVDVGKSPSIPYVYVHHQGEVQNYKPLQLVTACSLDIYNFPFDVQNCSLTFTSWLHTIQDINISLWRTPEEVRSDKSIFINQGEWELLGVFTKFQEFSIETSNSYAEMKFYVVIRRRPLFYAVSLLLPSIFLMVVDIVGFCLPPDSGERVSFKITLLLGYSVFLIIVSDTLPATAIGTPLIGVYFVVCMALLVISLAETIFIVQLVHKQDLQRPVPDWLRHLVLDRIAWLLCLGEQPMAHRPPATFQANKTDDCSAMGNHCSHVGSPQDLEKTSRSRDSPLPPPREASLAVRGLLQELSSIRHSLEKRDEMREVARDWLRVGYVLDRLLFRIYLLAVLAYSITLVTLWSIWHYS
# Protocol: as §1
# GR65630 binds to the 5-HT3 receptor. Brain cortices were obtained from male rats and a membrane fraction prepared by standard techniques. 0.04 mg of membrane prep was incubated with 0.2 nM […] for 60 minutes at 22° C. […] Membranes were filtered and washed 3 times and the filters were counted to determine [3H]-GR65630 specifically bound. (Kilpatrick G. J., Jones B. J. and Tyers M. B. Identification and distribution of 5-HT3 receptors in rat brain using radioligand binding. Nature, 330: 746-748, 1987).
# 5-HT4 receptor = target: T2, 5-HT4 receptor (Rattus norvegicus, UniProt Q62758); assay: In vitro functional assay for serotonin 5-HT4 agonism: rat TMM (relaxation of carbachol-contracted tunica muscularis mucosae); type: biochemical; settings: rat esophagus, carbachol (3 μM) contracted, 37° C, tissues from 5 rats
# T2 construct: The inner tunica muscularis mucosa was mounted under 0.2-0.3 g of tension in a tissue bath; from tissue; host or cells: rat intrathoracic esophagus, tunica muscularis mucosae
# Protocol: as §1
# Agonist activity was determined utilizing relaxation of carbachol-contracted rat tunica muscularis mucosae. One 2 cm segment of intrathoracic esophagus proximal to the diaphragm was removed from male rats, weighing approximately 300 gm, and the outer muscle layers removed. The inner tunica muscularis mucosa was mounted under 0.2-0.3 g of tension in a tissue bath containing oxygenated Tyrode's solution at 37° C. […] Following a 30 min equilibrium period, tissues were isometrically contracted with carbachol (3 μM) to obtain a tonic contraction. A stable plateau was obtained within 20 min when test compound was added cumulatively to relax the muscle strip. EC50 values were obtained for each agonist in tissues from 5 rats.
# T2 sequence (Q62758 whole entry): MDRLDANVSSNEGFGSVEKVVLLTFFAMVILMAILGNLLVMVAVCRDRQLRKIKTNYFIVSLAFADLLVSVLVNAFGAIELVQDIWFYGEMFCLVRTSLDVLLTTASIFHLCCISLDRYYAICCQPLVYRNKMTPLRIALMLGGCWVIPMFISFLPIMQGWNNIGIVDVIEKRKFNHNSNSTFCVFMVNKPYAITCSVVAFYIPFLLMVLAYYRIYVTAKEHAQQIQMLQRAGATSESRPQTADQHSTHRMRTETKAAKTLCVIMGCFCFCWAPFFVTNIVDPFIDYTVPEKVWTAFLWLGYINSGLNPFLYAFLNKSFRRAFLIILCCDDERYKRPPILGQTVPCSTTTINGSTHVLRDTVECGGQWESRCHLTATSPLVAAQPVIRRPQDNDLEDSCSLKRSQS
Structure (SMILES),Minimum Effective Dose (MED) (5-HT3),Hill Coefficient (5-HT3 receptor; [3H]-GR65630 bound (0.2 nM)),other results
O=c1[nH]c2ccccc2n1CCCN1CCC(n2c(=O)[nH]c3cc(Cl)ccc32)CC1 [domperidone],> 10 mg/kg,–,–
c1ccc2nc(N3CCNCC3)ccc2c1 [Quipazine],–,0.86,–
CN1[C@@H]2C[C@@H](OC(=O)[C@H](CO)c3ccccc3)C[C@H]1[C@@H]1O[C@@H]12 [scopolamine],2.5 mg/kg,–,–
CN1C2CCCC1CC(NC(=O)c1nn(C)c3ccccc13)C2 (stereo not shown) [BRL-43694],0.05 mg/kg,–,–
CN1C2CCC1CC(OC(=O)c1c[nH]c3ccccc13)C2 (stereo not shown) [ICS 205-930],–,1.0,–
COc1cc(N)c(Cl)cc1C(=O)NC1CN2CCC1CC2 (stereo not shown) [Zacopride],–,0.86,–
"CC(C)n1c(=O)n(C(=O)NCC23CCN(CC2)CC3)c2ccccc21 [Example 10, N-(1-azabicyclo[2.2.2]octan-4-ylmethyl)-2,3-dihydro-3-(1-methylethyl)-2-oxo-1H-benzimidazole-1-carboxamide]",0.03 mg/kg,–,IC50 (5-HT3 receptor; [3H]-GR65630 bound (0.2 nM)): 8.6 nM; Ki (5-HT3 receptor; [3H]-GR65630 bound (0.2 nM)): 4.3 nM; EC50 (5-HT4 receptor): 125 nM
COc1ccc2[nH]cc(C3=CCNCC3)c2c1 [RU24969],–,1.0,–
CCN(CC)CCNC(=O)c1cc(Cl)c(N)cc1OC [metoclopramide],5 mg/kg,–,–
Cc1[nH]cnc1CCC(=O)c1cn(C)c2ccccc12 [GR65630],–,–,"% Specific Binding (5-HT3 receptor; [3H]-GR65630, non-specific binding with 1 uM ICS 205-930): 70%"
